The target in one assay is T1, HER-2 kinase (Homo sapiens, UniProt P04626).
T1 construct: Use EGFr/HER-2 chimera/3T3-C7 cell line for this assay; It is expressed in mouse NIH 3T3 clone C7 cells; P00533 (Epidermal growth factor receptor)
Briefly: Cellular HER-2 kinase assay. The class given is cell-based. Conditions: read-out: Her2 Kinase IC50.

A further assay concerns the target T2, PDGFR-β (Homo sapiens, UniProt P09619).
T2 construct: host or cells: NIH 3T3
Briefly: PDGFR bioassay (bio PDGF). The class given is biochemical.

A further assay concerns the target T3, GST-Flk1 (Mus musculus, UniProt P35918).
T3 construct: GST-Flk1cd purified from sf9 recombinant baculovirus transformation; host or cells: Sf9 (baculovirus)
Briefly: GST-FLK-1 bioassay (bio flkGST). The class given is biochemical.

The target in a further assay is GST-FGFR1 (Homo sapiens, UniProt P11362). Briefly: FGFR1 bioassay (bio PGFR1). The class given is biochemical.
GST-FGFR1, sequence (P11362 22-822): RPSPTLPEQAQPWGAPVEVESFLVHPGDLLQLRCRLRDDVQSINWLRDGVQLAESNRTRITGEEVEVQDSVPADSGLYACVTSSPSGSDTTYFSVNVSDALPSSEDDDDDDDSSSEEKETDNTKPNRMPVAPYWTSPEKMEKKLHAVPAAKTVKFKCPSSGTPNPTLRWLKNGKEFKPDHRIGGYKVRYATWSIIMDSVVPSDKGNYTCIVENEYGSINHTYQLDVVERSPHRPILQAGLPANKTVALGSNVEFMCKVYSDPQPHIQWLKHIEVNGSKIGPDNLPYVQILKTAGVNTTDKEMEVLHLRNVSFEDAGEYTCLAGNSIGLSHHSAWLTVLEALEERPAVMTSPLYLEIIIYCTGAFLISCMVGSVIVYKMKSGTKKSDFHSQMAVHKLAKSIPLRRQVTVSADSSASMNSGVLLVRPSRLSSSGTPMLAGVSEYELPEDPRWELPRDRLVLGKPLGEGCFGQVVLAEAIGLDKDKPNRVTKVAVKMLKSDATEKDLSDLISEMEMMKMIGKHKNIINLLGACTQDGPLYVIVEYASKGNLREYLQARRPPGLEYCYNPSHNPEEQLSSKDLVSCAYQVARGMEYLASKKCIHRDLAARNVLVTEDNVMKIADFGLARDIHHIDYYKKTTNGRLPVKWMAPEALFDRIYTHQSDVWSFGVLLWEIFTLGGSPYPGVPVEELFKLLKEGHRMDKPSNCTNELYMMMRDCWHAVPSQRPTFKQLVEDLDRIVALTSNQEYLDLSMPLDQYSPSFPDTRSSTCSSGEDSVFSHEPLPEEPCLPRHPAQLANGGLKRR
In assay [1] the target is T4, EGFR (Homo sapiens, UniProt P00533).
T4 construct: A431 cell lysate (SUGEN, Inc.); host or cells: A431
T4 sequence (P00533 25-1210): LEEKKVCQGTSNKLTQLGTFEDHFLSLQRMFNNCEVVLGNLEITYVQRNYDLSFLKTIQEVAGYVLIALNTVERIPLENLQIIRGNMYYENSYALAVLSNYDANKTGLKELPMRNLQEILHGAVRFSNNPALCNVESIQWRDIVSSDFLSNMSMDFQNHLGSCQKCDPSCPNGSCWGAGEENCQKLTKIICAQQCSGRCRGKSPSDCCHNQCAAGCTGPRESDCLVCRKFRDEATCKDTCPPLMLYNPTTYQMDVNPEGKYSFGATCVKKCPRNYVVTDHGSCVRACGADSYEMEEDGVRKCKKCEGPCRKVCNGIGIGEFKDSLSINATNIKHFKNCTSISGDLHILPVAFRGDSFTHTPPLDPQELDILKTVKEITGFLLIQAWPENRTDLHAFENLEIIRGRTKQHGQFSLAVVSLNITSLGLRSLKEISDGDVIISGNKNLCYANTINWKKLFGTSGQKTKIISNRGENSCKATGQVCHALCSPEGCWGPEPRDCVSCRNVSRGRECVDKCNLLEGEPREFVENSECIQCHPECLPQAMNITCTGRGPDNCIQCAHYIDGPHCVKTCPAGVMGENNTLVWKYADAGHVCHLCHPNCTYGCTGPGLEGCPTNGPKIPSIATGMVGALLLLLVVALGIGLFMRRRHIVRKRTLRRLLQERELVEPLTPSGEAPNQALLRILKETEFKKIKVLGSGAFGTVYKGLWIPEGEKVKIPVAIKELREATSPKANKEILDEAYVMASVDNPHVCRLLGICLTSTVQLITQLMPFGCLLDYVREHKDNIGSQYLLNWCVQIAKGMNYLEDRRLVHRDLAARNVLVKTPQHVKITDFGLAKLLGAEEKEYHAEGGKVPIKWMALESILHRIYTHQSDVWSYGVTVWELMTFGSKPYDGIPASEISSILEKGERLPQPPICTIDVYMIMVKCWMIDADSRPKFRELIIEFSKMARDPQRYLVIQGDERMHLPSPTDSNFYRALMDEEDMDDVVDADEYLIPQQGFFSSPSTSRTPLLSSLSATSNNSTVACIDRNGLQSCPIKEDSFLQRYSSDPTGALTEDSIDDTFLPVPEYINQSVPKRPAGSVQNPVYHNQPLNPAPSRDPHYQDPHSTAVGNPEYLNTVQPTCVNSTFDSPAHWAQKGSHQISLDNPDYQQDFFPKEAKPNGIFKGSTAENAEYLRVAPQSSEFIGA
In words: EGFR bioassay (bio EGF). Type of assay: biochemical.
Description: This assay is used to the in vitro kinase activity of FGF1-R in an ELISA assay.
1. Corning 96-well Elisa plates.
2. SUMO1 monoclonal anti-EGFR antibody (SUGEN, Inc.).
5. Blocking Buffer: for 100 ml, mix 5.0 g Carnation Instant Non-fat Milk® with 100 ml of PBS.
6. A431 cell lysate (SUGEN, Inc.).
9. […] This reagent should be made up immediately prior to use and kept on ice.
11. […] Prepare just prior to use, keep on ice.
12. NUNC 96-well V bottom polypropylene plates.
14. Rabbit polyclonal anti-phosphotyrosine serum (SUGEN, Inc.).
15. Goat anti-rabbit IgG peroxidase conjugate (Biosource Cat. No. ALI0404).
17. 30% Hydrogen peroxide.
1. Coat Corning 96 well ELISA plates with 0.5 μg SUMO1 in 100 μl PBS per well, store overnight at 4° C.
2. Remove unbound SUMO1 from wells by inverting plate to remove liquid. Wash 1×with dH2O. Pat the plate on a paper towel to remove excess liquid.
3. Add 150 μl of Blocking Buffer to each well. Incubate, with shaking, for 30 min. at room temperature.
4. Wash plate 3×with deionized water, then once with TBST. Pat plate on a paper towel to remove excess liquid and bubbles.
5. Dilute lysate in PBS (7 μg lysate/100 μl PBS).
6. Add 100 μl of diluted lysate to each well. Shake at room temperature for 1 hr.
7. Wash plates as in 4, above.
8. Add 120 μl TBS to ELISA plate containing captured EGFR.
10. Add 13.5 μl diluted test compound to ELISA plate. To control wells, add 13.5 μl TBS in 10% DMSO.
11. Incubate, with shaking, for 30 minutes at room temperature.
12. Add 15 μl phosphorylation mix to all wells except negative control well. Final well volume should be approximately 150 μl with 3 μM ATP/5 mM MnCl2 final concentration in each well. Incubate with shaking for 5 minutes.
13. Stop reaction by adding 16.5 μl of EDTA solution while shaking. Shake for additional 1 min.
14. Wash 4×with deionized water, 2×with TBST.
15. Add 100 μl anti-phosphotyrosine (1:3000 dilution in TBST) per well. Incubate, with shaking, for 30-45 min. at room temperature.
17. […] Incubate with shaking for 30 min. at room temperature.
19. Add 100 μl of ABTS/H2O2 solution to each well.
20. Incubate 5 to 10 minutes with shaking. Remove any bubbles.
21. If necessary, stop reaction by adding 100 μl 0.2 M HCl per well.

Assay [2] concerns the target T4, EGFR. Briefly: cell EGF assay. The class given is cell-based. Here is the method:
Several of the assays described herein are performed in an ELISA (Enzyme-Linked Immunosorbent Sandwich Assay) format (Voller, et al., 1980, “Enzyme-Linked Immunosorbent Assay,” Manual of Clinical Immunology, 2d ed., Rose and Friedman, Am. Soc. Of Microbiology, Washington, D.C., pp. 359-371). The general procedure is as follows: a compound is introduced to cells expressing the test kinase, either naturally or recombinantly, for a selected period of time after which, if the test kinase is a receptor, a ligand known to activate the receptor is added. The cells are lysed and the lysate is transferred to the wells of an ELISA plate previously coated with a specific antibody recognizing the substrate of the enzymatic phosphorylation reaction. Non-substrate components of the cell lysate are washed away and the amount of phosphorylation on the substrate is detected with an antibody specifically recognizing phosphotyrosine compared with control cells that were not contacted with a test compound.

pIC50: −log10 of the molar value.

From patent publication US6573293B2, “Pyrrole substituted 2-indolinone protein kinase inhibitors” (Sugen, Inc., priority 2000, dated 2003) come the findings set out here.

T3 sequence (P35918 784-1345 limits assumed): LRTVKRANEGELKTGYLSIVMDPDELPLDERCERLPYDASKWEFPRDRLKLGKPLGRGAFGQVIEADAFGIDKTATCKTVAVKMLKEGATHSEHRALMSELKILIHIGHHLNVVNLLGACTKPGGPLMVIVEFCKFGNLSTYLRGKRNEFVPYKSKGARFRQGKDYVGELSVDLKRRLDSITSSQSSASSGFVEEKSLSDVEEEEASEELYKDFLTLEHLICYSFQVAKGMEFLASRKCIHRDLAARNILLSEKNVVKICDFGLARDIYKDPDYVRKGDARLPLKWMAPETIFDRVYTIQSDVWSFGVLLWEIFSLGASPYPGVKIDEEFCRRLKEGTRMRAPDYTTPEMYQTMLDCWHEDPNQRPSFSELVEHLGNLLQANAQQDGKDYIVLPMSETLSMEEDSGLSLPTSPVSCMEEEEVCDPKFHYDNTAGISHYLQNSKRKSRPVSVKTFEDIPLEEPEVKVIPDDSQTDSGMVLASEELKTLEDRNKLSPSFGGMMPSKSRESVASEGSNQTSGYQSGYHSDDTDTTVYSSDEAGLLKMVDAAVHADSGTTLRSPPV
T1 sequence (P04626 720-987 limits assumed): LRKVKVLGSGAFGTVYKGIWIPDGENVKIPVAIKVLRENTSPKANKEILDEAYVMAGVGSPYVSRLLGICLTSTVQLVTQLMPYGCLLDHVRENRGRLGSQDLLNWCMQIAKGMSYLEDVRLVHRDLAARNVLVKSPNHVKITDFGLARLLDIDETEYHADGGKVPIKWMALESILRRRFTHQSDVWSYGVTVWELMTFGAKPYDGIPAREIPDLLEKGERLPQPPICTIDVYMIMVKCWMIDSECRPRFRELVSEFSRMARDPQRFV
T2 sequence (P09619 33-1106): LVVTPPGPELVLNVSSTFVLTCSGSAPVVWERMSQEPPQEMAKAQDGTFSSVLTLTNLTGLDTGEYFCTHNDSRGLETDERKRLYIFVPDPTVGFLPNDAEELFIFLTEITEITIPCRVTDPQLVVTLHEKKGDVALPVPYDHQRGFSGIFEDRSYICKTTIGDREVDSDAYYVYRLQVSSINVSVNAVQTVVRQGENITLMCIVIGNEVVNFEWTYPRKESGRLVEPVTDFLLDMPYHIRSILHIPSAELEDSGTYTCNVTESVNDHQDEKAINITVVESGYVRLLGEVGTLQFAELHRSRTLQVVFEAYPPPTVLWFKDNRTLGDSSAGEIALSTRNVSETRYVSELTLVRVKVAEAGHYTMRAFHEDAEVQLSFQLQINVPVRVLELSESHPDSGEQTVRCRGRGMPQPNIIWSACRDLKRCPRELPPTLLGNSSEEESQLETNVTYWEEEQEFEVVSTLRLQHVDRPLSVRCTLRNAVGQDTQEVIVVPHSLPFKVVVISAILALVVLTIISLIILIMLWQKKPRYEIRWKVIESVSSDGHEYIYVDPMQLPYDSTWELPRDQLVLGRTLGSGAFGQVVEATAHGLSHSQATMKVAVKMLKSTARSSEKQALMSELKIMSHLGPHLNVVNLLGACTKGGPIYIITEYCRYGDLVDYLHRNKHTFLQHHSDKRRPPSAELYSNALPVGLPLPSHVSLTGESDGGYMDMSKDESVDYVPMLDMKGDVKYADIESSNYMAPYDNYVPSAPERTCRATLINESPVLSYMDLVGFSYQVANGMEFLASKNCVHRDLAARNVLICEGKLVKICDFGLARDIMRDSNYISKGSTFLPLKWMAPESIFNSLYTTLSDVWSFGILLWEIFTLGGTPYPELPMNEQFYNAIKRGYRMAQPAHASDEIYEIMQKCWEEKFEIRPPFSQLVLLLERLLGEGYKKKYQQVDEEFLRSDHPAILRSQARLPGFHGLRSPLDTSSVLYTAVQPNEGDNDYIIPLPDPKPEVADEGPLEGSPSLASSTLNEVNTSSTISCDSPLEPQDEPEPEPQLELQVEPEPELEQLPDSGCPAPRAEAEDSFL
Description for GST-FGFR1: This assay is used to measure the in vitro kinase activity of FGF1-R in an ELISA assay.
Poly(Glu-Tyr) (Sigma Catalog #PO275).
50 mM Hepes Buffer Solution.
Blocking Buffer (5% BSA/PBS).
Purified GST-FGFR1 (SUGEN, Inc.)
Mix 500 μl 1M Hepes (GIBCO), 20 μl 5% BSA/PBS, 10 μl 100 mM sodium orthovanadate and 50 μl 5M NaCl.
Add 500 μL TWEEN to 1 liter TBS.
(§1) Rabbit polyclonal anti-phosphotyrosine serum (SUGEN, Inc.).
Goat anti-rabbit IgG peroxidase conjugate (Biosource, Catalog #ALI0404).
Coat Costar 96 well ELISA plates with 1 μg per well Poly(Glu,Tyr) in 100 μl PBS. Store overnight at 4° C.
Wash coated plates once with PBS.
Add 150 μL of 5% BSA/PBS Blocking Buffer to each well. Incubate, with shaking, for 1 hr.room temperature.
Wash plate 2×with PBS, then once with 50 mM Hepes. Pat plates on a paper towel to remove excess liquid and bubbles.
Add 25 μL of 0.4 mM test compound in 4% DMSO or 4% DMSO alone (controls) to plate.
Dilute purified GST-FGFR1 in Kinase Dilution Buffer (5 ng kinase/50 ul KDB/well).
Add 50 μL of diluted kinase to each well.
This is a fast kinase reaction and must be stopped with 25 μL of 0.5M EDTA in a manner similar to the addition of ATP.
Wash plate 4×with fresh TBST.
Make up Antibody Dilution Buffer: Per 50 ml: Mix 5 ml of 5% BSA, 250 μl of 5% milk and 50 μl of 100 mM sodium vanadate, bring to final volume with 0.05% TBST.
Add 100 μl per well of anti-phosphotyrosine (1:10000 dilution in ADB). Incubate, with shaking for 1 hr. at room temperature.
Incubate, with shaking for 1 hr. at room temperature.
Wash as in step 10 and then with PBS to remove bubbles and excess TWEEN.
(§2) Add 100 μl of ABTS/H2O2 solution to each well.
17. […] Remove any bubbles.
Description for HER-2 kinase: Cellular HER-2 Kinase Assay
This assay is used to measure HER-2 kinase activity in whole cells in an ELISA format.
Fetal Bovine Serum (FBS, GIBCO Catalog #16000-044), heat inactivated in a water bath for 30 min. at 56° C.
Corning 96-well ELISA Plates.
(§3) NUNC 96-well V bottom polypropylene plates.
SUMO 1: monoclonal anti-EGFR antibody (SUGEN, Inc.).
Blocking Buffer: 5% Carnation Instant Milk® in PBS.
Suspend powder in 100 uL of 10 mM HCl. Add 100 uL 10 mM NaOH. Add 800 uL PBS and transfer to an Eppendorf tube, store at −20° C. until ready to use.
Na3VO4. […] Adjust pH to 10. Boil in microwave for one minute (solution becomes clear). Cool to room temperature. Adjust pH to 10. Repeat heating/cooling cycle until pH remains at 10.
Rabbit polyclonal antiserum specific for phosphotyrosine (anti-Ptyr antibody, SUGEN, Inc.).
Affinity purified antiserum, goat anti-rabbit IgG antibody, peroxidase conjugate (Biosource Cat #ALI0404).
30% Hydrogen peroxide solution.
Coat Corning 96 well ELISA plates with SUMO1 at 1.0 ug per well in PBS, 100 ul final volume/well. Store overnight at 4° C.
On day of use, remove coating buffer and wash plate 3 times with dH2O and once with TBST buffer. All washes in this assay should be done in this manner, unless otherwise specified.
Add 100 ul of Blocking Buffer to each well. Incubate plate, with shaking, for 30 min. at room temperature. Just prior to use, wash plate.
Use EGFr/HER-2 chimera/3T3-C7 cell line for this assay.
Choose dishes having 80-90% confluence. Collect cells by trypsinization and centrifuge at 1000 rpm at room temperature for 5 min.
Resuspend cells in starve medium and count with trypan blue. Viability above 90% is required. Seed cells in starve medium at a density of 2,500 cells per well, 90 ul per well, in a 96 well microtiter plate. Incubate seeded cells overnight at 37° under 5% CO2.
Start the assay two days after seeding.
Test compounds are dissolved in 4% DMSO. Samples are then further diluted directly on plates with starve-DMEM. Typically, this dilution will be 1:10 or greater.
Incubate under 5% CO2 at 37° C. for 2 hours.
Prepare fresh HNTG* sufficient for 100 ul per well; place on ice.
After 2 hour incubation with test compound, add prepared EGF ligand to cells, 50 ul per well, for a final concentration of 50 nM. Positive control wells receive the same amount of EGF. […] Incubate at 37° C. for 10 min.
Remove test compound, EGF, and DMEM. Wash cells once with PBS.
Transfer HNTG* to cells, 100 ul per well. Place on ice for 5 minutes. Meanwhile, remove blocking buffer from ELISA plate and wash.
Scrape cells from plate with a micropipettor and homogenize cell material by repeatedly aspirating and dispensing the HNTG* lysis buffer. Transfer lysate to a coated, blocked, washed ELISA plate. Or, use a Costar transfer cartridge to transfer lysate to the plate.
Incubate, with shaking, at room temperature for 1 hr.
Remove lysate, wash. Transfer freshly diluted anti-Ptyr antibody (1:3000 in TBST) to ELISA plate, 100 ul per well.
Incubate, with shaking, at room temperature, for 30 min.
Remove anti-Ptyr antibody, wash. Transfer freshly diluted BIOSOURCE antibody to ELISA plate (1:8000 in TBST, 100 ul per well).
Incubate, with shaking, at room temperature for 30 min.
Remove BIOSOURCE antibody, wash. Transfer freshly prepared ABTS/H2O2 solution to ELISA plate, 100 ul per well.
Stop reaction with the addition of 100 ul of 0.2M HCl per well.
Description for PDGFR-β: Corning 96-well Elisa plates
28D4C10 monoclonal anti-PDGFR antibody (SUGEN, Inc.).
Blocking Buffer (same as for EGFR bioassay).
PDGFR-β expressing NIH 3T3 cell lysate (SUGEN, Inc.).
Kinase buffer phosphorylation mix: for 10 ml, mix 250 μl 1M TRIS, 200 μl 5M NaCl, 100 μl 1M MnCl2 and 50 μl 100 mM Triton X-100 in enough dH2O to make 10 ml.
as §3, §1
Goat anti-rabbit IgG peroxidase conjugate (Biosource Cat. No. ALI0404).
Hydrogen peroxide, 30% solution.
Coat Corning 96 well ELISA plates with 0.5 μg 28D4C10 in 100 μl PBS per well, store overnight at 4° C.
Remove unbound 28D4C10 from wells by inverting plate to remove liquid. Wash 1×with dH2O. Pat the plate on a paper towel to remove excess liquid.
Add 150 μl of Blocking Buffer to each well. Incubate for 30 min. at room temperature with shaking.
Wash plate 3×with deionized water, then once with TBST. Pat plate on a paper towel to remove excess liquid and bubbles.
Dilute lysate in HNTG (10 μg lysate/100 μl HNTG).
Add 100 μl of diluted lysate to each well. Shake at room temperature for 60 min.
Wash plates as described in Step 4.
Add 80 μl working kinase buffer mix to ELISA plate containing captured PDGFR.
Add 10 μl diluted test compound to ELISA plate. To control wells, add 10 μl TBS+10% DMSO. Incubate with shaking for 30 minutes at room temperature.
Add 10 μl ATP directly to all wells except negative control well (final well volume should be approximately 100 μl with 20 μM ATP in each well.) Incubate 30 minutes with shaking.
Stop reaction by adding 10 μl of EDTA solution to each well.
Wash 4×with deionized water, twice with TBST.
Add 100 μl anti-phosphotyrosine (1:3000 dilution in TBST) per well. Incubate with shaking for 30-45 min. at room temperature.
Incubate with shaking for 30 min. at room temperature.
as §2
Incubate 10 to 30 minutes with shaking. Remove any bubbles.
If necessary stop reaction with the addition of 100 μl 0.2 M HCl per well.

In the case of `Cc1[nH]c(/C=C2\C(=O)Nc3cccc(CCO)c32)c(C)c1C(=O)N1CCN(C)CC1` [Example 85, 3-[3,5-Dimethyl-4-(4-methyl-piperazine-1-carbonyl)-1H-pyrrol-2-ylmethylene]-4-(2-hydroxy-ethyl)-1,3-dihydroindol-2-one], the pIC50 is 5.42 on HER-2 kinase; 5.59 on PDGFR-β; 6.70 at GST-Flk1; 6.10 at GST-FGFR1; below 4.00 on EGFR [1].

In the case of `CCN(CC)CCN(C)C(=O)c1ccc(/C=C2\C(=O)Nc3cc(-c4ccccc4)ccc32)[nH]1` [Example 11, 5-(2-Oxo-6-phenyl-1,2-dihydroindol-3-ylidenemethyl)-1H-pyrrole-2-carboxylic acid (2-diethylaminoethyl)methylamide], the pIC50 is below 4.00 at HER-2 kinase; below 4.00 against PDGFR-β; 5.01 on GST-Flk1; below 4.00 at EGFR [2]; below 4.00 at EGFR [1].

In the case of `Cc1cc(C(=O)O)[nH]c1/C=C1\C(=O)Nc2ccc(Cl)cc21` [Example 5, 5-(5-Chloro-2-oxo-1,2-dihydroindol-3-ylidenemethyl)-4-methyl-1H-pyrrole-2-carboxylic acid], the pIC50 was below 4.00 on HER-2 kinase; below 4.00 on PDGFR-β; 5.08 against GST-Flk1; below 4.00 at EGFR [2]; 4.79 on GST-FGFR1; below 4.00 against EGFR [1].

Take `CCN(CC)CCCNC(=O)c1c(C)[nH]c(/C=C2\C(=O)Nc3ccc(-c4ccccc4)cc32)c1C` [Example 67, 2,4-Dimethyl-5-(2-oxo-5-phenyl-1,2-dihydroindol-3-ylidenemethyl)-1H-pyrrole-3-carboxylic acid (3-diethylaminopropyl)amide]: the pIC50 was 5.59 at HER-2 kinase; 4.61 on PDGFR-β; 6.41 on GST-Flk1; 4.70 against EGFR [2]; 4.50 on EGFR [1].

Regarding `CCN(CC)CCCNC(=O)c1c(C(C)C)[nH]c(/C=C2\C(=O)Nc3ccc(Br)cc32)c1-c1ccccc1` [Example 37, 5-(5-Bromo-2-oxo-1,2-dihydroindol-3-ylidenemethyl)-2-isopropyl-4-phenyl-1H-pyrrole-3-carboxylic acid (3-diethylaminopropyl)amide], the pIC50 was 5.85 on HER-2 kinase; 5.51 against PDGFR-β; 6.66 against GST-Flk1; 5.01 on EGFR [2]; 4.97 at EGFR [1].

For the molecule `CN(C)CCNC(=O)c1[nH]c(/C=C2\C(=O)Nc3ccc(Br)cc32)c2c1CCCC2` [Example 89, 3-(5-Bromo-2-oxo-1,2-dihydro-indol-3-ylidenemethyl)-4,5,6,7-tetrahydro-2H-isoindole-1-carboxylic acid (2-dimethylamino-ethyl)-amide], the pIC50 was 4.80 on HER-2 kinase; 4.32 on PDGFR-β; 5.11 against GST-Flk1; 5.01 at EGFR [2]; 5.07 on EGFR [1].

`CCN(CC)CCNC(=O)c1ccc(/C=C2\C(=O)Nc3ccc(Br)cc32)[nH]1` [Example 8, 5-(5-Bromo-2-oxo-1,2-dihydroindol-3-ylidenemethyl)-1H-pyrrole-2-carboxylic acid (2-diethylaminoethyl)amide]: the pIC50 at HER-2 kinase is 5.26; on PDGFR-β, below 4.00; on GST-Flk1, 4.92; against EGFR [2] it was 4.70; against EGFR [1], 4.29.

As to `Cc1[nH]c(/C=C2\C(=O)Nc3cc(-c4cccnc4)ccc32)c(C)c1C(=O)NCCN1CCCC1` [Example 64, 2,4-Dimethyl-5-(2-oxo-6-pyridin-3-yl-1,2-dihydroindol-3-ylidenemethyl)-1H-pyrrole-3-carboxylic acid (2-pyrrolidin-1-yl-ethyl)amide], the pIC50 at HER-2 kinase was below 4.00; on PDGFR-β, above 6.11; against GST-Flk1 it was 6.26; against EGFR [2], below 4.00; against EGFR [1], 4.52.

`CCN(CC)CCCNC(=O)c1cc(C)c(/C=C2\C(=O)Nc3ccc(Br)cc32)[nH]1` [Example 7, 5-(5-Bromo-2-oxo-1,2-dihydroindol-3-ylidenemethyl)-4-methyl-1H-pyrrole-2-carboxylic acid (3-diethylaminopropyl)amide]: the pIC50 at HER-2 kinase was 5.37; at PDGFR-β, below 4.00; against GST-Flk1 it was 5.11; at EGFR [2], 5.01; on EGFR [1] it was 5.29.

For `CCN(CC)CCNC(=O)c1c(C(C)C)[nH]c(/C=C2\C(=O)Nc3ccc(Br)cc32)c1-c1ccccc1` [Example 39, 5-(5-Bromo-2-oxo-1,2-dihydroindol-3-ylidenemethyl)-2-isopropyl-4-phenyl-1H-pyrrole-3-carboxylic acid (2-diethylaminoethyl)amide], the pIC50 at HER-2 kinase was 5.45; on PDGFR-β it was 5.33; against GST-Flk1, 5.47; against EGFR [2] it was 4.84; against EGFR [1] it was 5.44.

For `CCN(CC)CCN(C)C(=O)c1ccc(/C=C2\C(=O)Nc3ccc(Br)cc32)[nH]1` [Example 10, 5-(5-Bromo-2-oxo-1,2-dihydroindol-3-ylidenemethyl)-1H-pyrrole-2-carboxylic acid (2-diethylaminoethyl)methylamide], the pIC50 at HER-2 kinase was 5.09; against PDGFR-β it was below 4.00; against GST-Flk1, 5.24; at EGFR [2], 4.80; against EGFR [1] it was 4.03.

Turning to `CCN(CC)CCNC(=O)c1c(C)[nH]c(/C=C2\C(=O)Nc3ccc(-c4ccccc4)cc32)c1C` [Example 56, 2,4-Dimethyl-5-(2-oxo-5-phenyl-1,2-dihydroindol-3-ylidenemethyl)-1H-pyrrole-3-carboxylic acid (2-diethylaminoethyl)amide], the pIC50 on HER-2 kinase was 5.15; against PDGFR-β, 5.50; at GST-Flk1, 5.63; against EGFR [2], 5.00; on EGFR [1], below 4.00.

Turning to `CC(C)c1[nH]c(/C=C2\C(=O)Nc3ccc(Br)cc32)c(-c2ccccc2)c1C(=O)NCCCN1CCCC1` [Example 38, 5-(5-Bromo-2-oxo-1,2-dihydroindol-3-ylidenemethyl)-2-isopropyl-4-phenyl-1H-pyrrole-3-carboxylic acid (3-pyrrolidin-1-ylpropyl)amide], the pIC50 at HER-2 kinase is 5.67; on PDGFR-β it was 5.51; at GST-Flk1, 5.38; against EGFR [2], 5.05; against EGFR [1], 5.22.

Turning to `Cc1[nH]c(/C=C2\C(=O)Nc3ccc(Br)cc32)c(-c2ccccc2)c1C(=O)NCCN(C)C` [Example 44, 5-(5-Bromo-2-oxo-1,2-dihydroindol-3-ylidenemethyl)-2-methyl-4-phenyl-1H-pyrrole-3-carboxylic acid (2-dimethylamino-ethyl)amide], the pIC50 on HER-2 kinase was 5.16; on PDGFR-β, 7.70; against GST-Flk1 it was above 7.30; against EGFR [2] it was 4.17; at EGFR [1] it was 4.68.

As to `CCOC(=O)c1cc(C)c(/C=C2\C(=O)Nc3ccc(Cl)cc32)[nH]1` [Example 4, 5-(5-Chloro-2-oxo-1,2-dihydroindol-3-ylidenemethyl)-4-methyl-1H-pyrrole-2-carboxlyc acid ethyl ester], the pIC50 at HER-2 kinase was below 4.00; at PDGFR-β, below 4.00; against GST-Flk1 it was 5.45; against EGFR [2], below 4.00; against GST-FGFR1 it was below 4.70; against EGFR [1], below 4.00.

In the case of `Cc1[nH]c(/C=C2\C(=O)Nc3ccc(-c4ccccc4)cc32)c(C)c1C(=O)NCCN1CCCC1` [Example 57, 2,4-Dimethyl-5-(2-oxo-5-phenyl-1,2-dihydroindol-3-ylidenemethyl)-1H-pyrrole-3-carboxylic acid (2-pyrrolidin-1-yl-ethyl)amide], the pIC50 at HER-2 kinase was 5.16; at PDGFR-β it was 5.10; against GST-Flk1, 7.22; against EGFR [2] it was 5.00; on EGFR [1], below 4.00.

For `Cc1[nH]c(/C=C2\C(=O)Nc3cc(-c4cccnc4)ccc32)c(C)c1C(=O)NCCCN(C)C` [Example 65, 2,4-Dimethyl-5-(2-oxo-6-pyridin-3-yl-1,2-dihydroindol-3-ylidenemethyl)-1H-pyrrole-3-carboxylic acid (3-dimethylamino-propyl)amide], the pIC50 on HER-2 kinase is 4.80; at PDGFR-β, above 7.30; against GST-Flk1, 6.43; on EGFR [2], 4.13; against EGFR [1], below 4.00.

Regarding `CCN(CC)CCCNC(=O)c1c(C(C)C)[nH]c(/C=C2\C(=O)Nc3ccc(Br)cc32)c1C(C)C` [Example 72, 5-(5-Bromo-2-oxo-1,2-dihydroindol-3-ylidenemethyl)-2,4-diisopropyl-1H-pyrrole-3-carboxylic acid (3-diethylaminopropyl)amide], the negative-log IC50 (pIC50) on HER-2 kinase was 5.02; against PDGFR-β, 4.98; against GST-Flk1, 5.22; against EGFR [2], 4.40; on EGFR [1], below 4.00.
